# Laboratory results published in US8173120B2, “Method of preventing reduced feed intake in animals and treatment of disease conditions” (Precision Nutrition Pty Ltd, priority 2005, dated 2012).
# Read-outs that look alike come from different tables or passages of the source.
# Assays:
# [1] = horses, very high concentrations (500 mg/kg complete feed); cited from earlier work
# [2] = feed intake on introduction of virginiamycin into the diet (general statements); format: in vivo, sheep, cattle and horses
# [3] = feed intake of horses on sudden or gradual introduction of virginiamycin (Founderguard); format: in vivo
# Description: The aim of the experiment was to determine if there is a depression in feed intake when horses are first given Founderguard at the recommended dose rate of 0.5 mg virginiamycin per kg body weight per day, and whether a gradual or sudden introduction of Founderguard has different effects on feed intake during the introductory period.
# Five horses of mixed ages and sexes were used in the experiment. All horses were treated against intestinal parasites prior to the Control period.
# Open air feeding stalls approximately 2.5 m square were prepared with ground-level hay feeders, car tyre bucket-holders for feeding grain and a water trough shared between two stalls. Horses entered the stalls around 7.00 AM each day and were let out for exercise around 5.00 PM. […]
# All the oats offered were consumed. Intake of all feed was measured on an ‘as-fed’ basis. […] While not measured objectively the quality of hay used in Period 2 was considered to be of higher quality than that used in Period 1. The effect of treatment on feed intake for each horse was calculated each day as a percentage of the mean intake for that animal during the five days of ‘Control’ intake measurement. […]
# Feed intake was measured for at least 5 days without Founderguard (control intake) before commencing the five day treatment period. […]
# [4] = tested on: lactic acid producing bacteria; assay: in vitro function assay: lactic acid and pH after incubation of faecal/colonic samples from horses fed virginiamycin pellets; format: in vivo
# Description: Twelve horses were housed individually and fed 2.5 kg/d of a commercial horse concentrate each morning. Approximately 6 kg of medium quality lucerne hay was fed after animals had consumed the concentrate.
# The experiment was run in three periods with 4 animals in the stables during each period. Each period lasted 12 days: five days to allow adaptation to the stables and the dietary regime, and then 7 days when medicated pellets containing different concentrations of virginiamycin were fed. Faecal samples were taken on the day before feeding medicated feed and then on days 2, 4 and 6 of feeding the medicated pellets.
# The effectiveness of each dose rate and time on treatment was determined using an in vitro function assay to determine the amount of lactic acid produced during in vitro incubation of faecal material or samples taken from the distal colon. The fermentation of faecal material was carried out as follows. Fresh faecal material was obtained prior to the morning feed. Where warm material was available in the stable this was used, otherwise a rectal sample was obtained. A sub-sample of 150 g was mixed with an equal volume of distilled water and then strained through nylon gauze. Aliquots of supernatant were dispensed into 3 replicate tubes (4 ml/tube) and 1 ml of glucose solution (50 mg glucose/ml) was added before pricking the lid of the plastic vial with a 25 g needle and incubating for 20 to 24 hours at 37°. Following incubation the measurements of pH were made before centrifugation of a sub-sample prior to L-lactic acid analysis.
# The results of the in vitro function assay are summarised in Tables 2 and 3 and represented graphically in FIG. 3. It is relevant to note that the level of glucose used in the in vitro incubations is effectively higher than any amount of carbohydrate which could be used in vivo. In the in vitro model, no volatile fatty acids are removed from the incubation flask through “absorption”.
# The result of this is that the pH drops in vitro by more than it would in vivo and that a lactate-based fermentation develops more readily. It is therefore probably unrealistic to expect that lactate production can be completely controlled in this in vitro incubation model. Initially it was considered that the “baseline” in the in vitro model could be set around 10 mmol/L for an effective dose rate of virginiamycin. However, given the variable response around the 0.5 mg/kg dose rate in terms of lactic acid accumulation in the in vitro model it may be advisable to set a lower threshold for mean lactic acid concentration in determining the effective dose rate.
# [5] = horse 1, 640 mg/d, 1.422 mg/kg, 2 days on medicated feed
# [6] = horse 1, 640 mg/d, 1.422 mg/kg, 6 days on medicated feed
# [7] = horse 2, 160 mg/d, 0.343 mg/kg, 2 days on medicated feed
# [8] = horse 2, 160 mg/d, 0.343 mg/kg, 4 days on medicated feed
# [9] = horse 3, 1280 mg/d, 2.639 mg/kg, 2 days on medicated feed
# [10] = horse 3, 1280 mg/d, 2.639 mg/kg, 4 days on medicated feed
# [11] = horse 3, 1280 mg/d, 2.639 mg/kg, 6 days on medicated feed
# [12] = horse 4, 20 mg/d, 0.042 mg/kg, 2 days on medicated feed
# [13] = horse 4, 20 mg/d, 0.042 mg/kg, 4 days on medicated feed
# [14] = horse 4, 20 mg/d, 0.042 mg/kg, 6 days on medicated feed
# [15] = horse 5, 160 mg/d, 0.359 mg/kg, 2 days on medicated feed
# [16] = horse 5, 160 mg/d, 0.359 mg/kg, 4 days on medicated feed
# [17] = horse 5, 160 mg/d, 0.359 mg/kg, 6 days on medicated feed
# [18] = horse 6, 40 mg/d, 0.091 mg/kg, 2 days on medicated feed
# [19] = horse 6, 40 mg/d, 0.091 mg/kg, 4 days on medicated feed
# [20] = horse 7, 640 mg/d, 1.475 mg/kg, 2 days on medicated feed
# [21] = horse 7, 640 mg/d, 1.475 mg/kg, 4 days on medicated feed
# [22] = horse 7, 640 mg/d, 1.475 mg/kg, 6 days on medicated feed
# [23] = horse 8, 80 mg/d, 0.154 mg/kg, 2 days on medicated feed
# [24] = horse 8, 80 mg/d, 0.154 mg/kg, 6 days on medicated feed
# [25] = horse 9, 80 mg/d, 0.180 mg/kg, 2 days on medicated feed
# [26] = horse 9, 80 mg/d, 0.180 mg/kg, 4 days on medicated feed
# [27] = horse 10, 320 mg/d, 0.702 mg/kg, 2 days on medicated feed
# [28] = horse 10, 320 mg/d, 0.702 mg/kg, 4 days on medicated feed
# [29] = horse 11, 160 mg/d, 0.432 mg/kg, 2 days on medicated feed
# [30] = horse 11, 160 mg/d, 0.432 mg/kg, 6 days on medicated feed
# [31] = horse 12, 320 mg/d, 0.693 mg/kg, 2 days on medicated feed
# [32] = horse 12, 320 mg/d, 0.693 mg/kg, 6 days on medicated feed
substance,measurement,setting,value
virginiamycin,effect on feed intake,[1],reduce feed intake
same,feed intake compared to pre-medication levels,[2]; gradually increasing doses,no detectable decrease in feed intake
same,"feed intake, average, of the pretreatment level",[2]; sudden introduction of the full dose rate,around 80%
same,reduction of feed intake,"[2]; sudden introduction to sheep, cattle or horses at 0.5 mg per kg body weight and above, or 20 g/tonne and above",≥ 20%
same,effect on feed intake,"[3]; gradual introduction over 4 days (25, 50, 75, 100% of complete dose)",does not cause a depression in feed intake
same,feed intake compared to pretreatment levels (day 0) and to gradual introduction,[3]; sudden introduction of the full dose (0.5 mg/kg bodyweight per day),significant decrease in feed intake
same,control of lactic acid production,"[4]; 0.4 to 0.7 mg per kg bodyweight per day, after three to four days",partial and variable levels of controlling lactic acid production
same,control of lactic acid producing bacteria in faecal/colonic digesta,"[4]; 1.4 and 2.6 mg/kg body weight, 48 hours after first treatment",good control of lactic acid producing bacteria
same,capacity for lactic acid production,"[4]; 1.4 and 2.6 mg/kg body weight, days 4 and 6 as well as day 2",remained low
same,capacity for lactic acid production,"[4]; average of 0.4 and 0.7 mg/kg bodyweight per day, days 2, 4 and 6, response more variable and less complete than higher dose rates",reduction in capacity for lactic acid production
same,control of lactic acid production,"[4]; dose rates over 1.4 mg per kg body weight, after two days of treatment",almost complete control
same,"L-lactate concentration following incubation of faecal samples, Mean",[4]; [5],0 mmol/L
same,"pH measured following incubation of faecal samples, Mean",[4]; [5],5.11
same,"L-lactate concentration following incubation of faecal samples, Mean",[4]; [6],4 mmol/L
same,"pH measured following incubation of faecal samples, Mean",[4]; [6],4.94
same,"L-lactate concentration following incubation of faecal samples, Mean",[4]; [7],17 mmol/L
same,"pH measured following incubation of faecal samples, Mean",[4]; [7],4.61
same,"L-lactate concentration following incubation of faecal samples, Mean",[4]; [8],21 mmol/L
same,"pH measured following incubation of faecal samples, Mean",[4]; [8],4.76
same,"L-lactate concentration following incubation of faecal samples, Mean","[4]; horse 2, 160 mg/d, 0.343 mg/kg, 6 days on medicated feed",12 mmol/L
same,"L-lactate concentration following incubation of faecal samples, Mean",[4]; [9],0 mmol/L
same,"pH measured following incubation of faecal samples, Mean",[4]; [9],4.43
same,"L-lactate concentration following incubation of faecal samples, Mean",[4]; [10],0 mmol/L
same,"pH measured following incubation of faecal samples, Mean",[4]; [10],4.71
same,"L-lactate concentration following incubation of faecal samples, Mean",[4]; [11],1 mmol/L
same,"pH measured following incubation of faecal samples, Mean",[4]; [11],4.59
same,"L-lactate concentration following incubation of faecal samples, Mean",[4]; [12],47 mmol/L
same,"pH measured following incubation of faecal samples, Mean",[4]; [12],3.63
same,"L-lactate concentration following incubation of faecal samples, Mean",[4]; [13],47 mmol/L
same,"pH measured following incubation of faecal samples, Mean",[4]; [13],4.02
same,"L-lactate concentration following incubation of faecal samples, Mean",[4]; [14],31 mmol/L
same,"pH measured following incubation of faecal samples, Mean",[4]; [14],4.28
same,"L-lactate concentration following incubation of faecal samples, Mean",[4]; [15],0 mmol/L
same,"pH measured following incubation of faecal samples, Mean",[4]; [15],4.48
same,"L-lactate concentration following incubation of faecal samples, Mean",[4]; [16],0 mmol/L
same,"pH measured following incubation of faecal samples, Mean",[4]; [16],4.73
same,"L-lactate concentration following incubation of faecal samples, Mean",[4]; [17],0 mmol/L
same,"pH measured following incubation of faecal samples, Mean",[4]; [17],5.09
same,"L-lactate concentration following incubation of faecal samples, Mean",[4]; [18],23 mmol/L
same,"pH measured following incubation of faecal samples, Mean",[4]; [18],4.11
same,"L-lactate concentration following incubation of faecal samples, Mean",[4]; [19],25 mmol/L
same,"pH measured following incubation of faecal samples, Mean",[4]; [19],4.11
same,"L-lactate concentration following incubation of faecal samples, Mean","[4]; horse 6, 40 mg/d, 0.091 mg/kg, 6 days on medicated feed",24 mmol/L
same,"L-lactate concentration following incubation of faecal samples, Mean",[4]; [20],1 mmol/L
same,"pH measured following incubation of faecal samples, Mean",[4]; [20],4.85
same,"L-lactate concentration following incubation of faecal samples, Mean",[4]; [21],1 mmol/L
same,"pH measured following incubation of faecal samples, Mean",[4]; [21],4.64
same,"L-lactate concentration following incubation of faecal samples, Mean",[4]; [22],1 mmol/L
same,"pH measured following incubation of faecal samples, Mean",[4]; [22],4.67
same,"L-lactate concentration following incubation of faecal samples, Mean",[4]; [23],5 mmol/L
same,"pH measured following incubation of faecal samples, Mean",[4]; [23],4.41
same,"L-lactate concentration following incubation of faecal samples, Mean",[4]; [24],44 mmol/L
same,"pH measured following incubation of faecal samples, Mean",[4]; [24],4.36
same,"L-lactate concentration following incubation of faecal samples, Mean",[4]; [25],4 mmol/L
same,"pH measured following incubation of faecal samples, Mean",[4]; [25],4.83
same,"L-lactate concentration following incubation of faecal samples, Mean",[4]; [26],37 mmol/L
same,"pH measured following incubation of faecal samples, Mean",[4]; [26],4.25
same,"L-lactate concentration following incubation of faecal samples, Mean","[4]; horse 9, 80 mg/d, 0.180 mg/kg, 6 days on medicated feed",29 mmol/L
same,"L-lactate concentration following incubation of faecal samples, Mean",[4]; [27],1 mmol/L
same,"pH measured following incubation of faecal samples, Mean",[4]; [27],4.67
same,"L-lactate concentration following incubation of faecal samples, Mean",[4]; [28],1 mmol/L
same,"pH measured following incubation of faecal samples, Mean",[4]; [28],5.06
same,"L-lactate concentration following incubation of faecal samples, Mean","[4]; horse 10, 320 mg/d, 0.702 mg/kg, 6 days on medicated feed",15 mmol/L
same,"L-lactate concentration following incubation of faecal samples, Mean",[4]; [29],4 mmol/L
same,"pH measured following incubation of faecal samples, Mean",[4]; [29],4.54
same,"L-lactate concentration following incubation of faecal samples, Mean",[4]; [30],19 mmol/L
same,"pH measured following incubation of faecal samples, Mean",[4]; [30],4.12
same,"L-lactate concentration following incubation of faecal samples, Mean",[4]; [31],36 mmol/L
same,"pH measured following incubation of faecal samples, Mean",[4]; [31],3.85
same,"L-lactate concentration following incubation of faecal samples, Mean",[4]; [32],3 mmol/L
same,"pH measured following incubation of faecal samples, Mean",[4]; [32],4.93
same,prevention of over production of lactic acid,"[4]; horses, low dose rates such as 0.1 mg per kg bodyweight per day",may not be effective in preventing over production of lactic acid
